Experimental findings from ChEMBL document CHEMBL3112501, “Design, synthesis and preliminary bioactivity studies of 1,2-dihydrobenzo[d]isothiazol-3-one-1,1-dioxide hydroxamic acid derivatives as novel histone deacetylase inhibitors” (Bioorg Med Chem, 2014) are described below.

The target of this experiment is Histone deacetylase (HDAC1 and HDAC2) (Homo sapiens, UniProt Q13547+Q92769). Briefly: Inhibition of HDAC1/2 in human HeLa cell extracts using acetylated histone peptide as substrate after 30 mins. It is filed as protein assay.

By IC50 is commonly meant the midpoint of a concentration-inhibition curve. Lower therefore signals greater potency. `O=C(CCCCCN1C(=O)c2ccc(NC(=O)Cc3ccccc3)cc2S1(=O)=O)NO` registered an IC50 of 244 nM.
